Active and inactive are the calls of the source. The rule behind the calls is not given here. Peptide text beside a SMILES is read from it.
Legend:
[1] = tested on: BE(2)-C; experiment: Induction of ROS generation in human BE(2)-C cells after 24 hrs by DCFH-DA staining based fluorescence analysis; assay type: functional, cell-based
[2] = tested on: HeLa; experiment: Induction of necrosis in human HeLa cells at 2xIC50 after 24 hrs by Annexin-V alexa fluor 488/PI staining based fluorescence microscopic analysis; assay type: functional, cell-based
[3] = tested on: BE(2)-C; experiment: Induction of ROS generation in human BE(2)-C cells at 2xIC50 measured up to 24 hrs in presence of ROS quencher, ascorbic acid by DCFH-DA staining based fluorescence analysis; assay type: functional, cell-based
[4] = tested on: Candida albicans; experiment: Antibiofilm activity against Candida albicans SC5314 assessed as inhibition of biofilm formation after 24 hrs by XTT-dye based assay; assay type: functional
[5] = target: 20S proteasome; experiment: Inhibition of human 20S proteasome using Suc-LLVY-AMC as substrate measured every 5 mins for 120 mins by fluorescence based assay; assay type: protein-complex assay
[6] = tested on: BE(2)-C; experiment: Induction of necrosis in human BE(2)-C cells at 2xIC50 after 24 hrs by Annexin-V alexa fluor 488/PI staining based fluorescence microscopic analysis; assay type: functional, cell-based
[7] = tested on: HeLa; experiment: Induction of apoptosis in human HeLa cells at 2xIC50 after 24 hrs by Annexin-V alexa fluor 488/PI staining based fluorescence microscopic analysis; assay type: functional, cell-based
[8] = tested on: BE(2)-C; experiment: Induction of ROS generation in human BE(2)-C cells at 2xIC50 by DCFH-DA staining based fluorescence analysis; assay type: functional, cell-based; conditions: TDE = time-dependent effect
[9] = tested on: BE(2)-C; experiment: Induction of apoptosis in human BE(2)-C cells assessed as condensed chromatin at 2xIC50 after 24 hrs by Hoechst-33342 staining based inverted fluorescence microscopic analysis; assay type: functional, cell-based
[10] = tested on: BE(2)-C; experiment: Induction of membrane disruption in human BE(2)-C cells assessed as increase in cell debris with damaged membrane at 2xIC50 after 12 hrs by SEM analysis; assay type: cell-based
[11] = tested on: Candida albicans; experiment: Potentiation of amphotericin B-induced antifungal activity against Candida albicans SC5314 assessed as fold reduction in amphotericin MIC after 24 to 48 hrs by checker board assay relative to amphotericin alone; assay type: functional
[12] = tested on: HeLa; experiment: Induction of apoptosis in human HeLa cells assessed as apoptotic cells at 2xIC50 after 24 hrs by Alexa flour 488 annexin V/PI- staining based flow cytometric analysis relative to control; assay type: functional
[13] = tested on: Candida albicans; experiment: Antifungal activity against Candida albicans SC5314 in presence of amphotericin B after 24 to 48 hrs by checker board assay; assay type: functional
[14] = tested on: BE(2)-C; experiment: Antiproliferative activity against human BE(2)-C cells assessed as reduction in cell viability in presence of cisplatin after 48 hrs by MTT assay; assay type: functional, cell-based
[15] = tested on: Candida albicans; experiment: Induction of hyphal disruption in Candida albicans SC5314 assessed as hyphal debris at 2xMBEC by SEM analysis; assay type: organism-based; conditions: Hyphae
[16] = tested on: Candida albicans; experiment: Induction of pore formation in Candida albicans SC5314 membrane at 2xMBEC by SEM analysis; assay type: organism-based; conditions: Cell membrane
[17] = tested on: Candida albicans; experiment: Ratio of MIC for antifungal activity against Candida albicans SC5314 to MIC for antifungal activity against Candida albicans SC5314 in presence of amphotericin B after 24 to 48 hrs by checker board assay; assay type: functional
[18] = tested on: HeLa; experiment: Induction of apoptosis in human HeLa cells assessed as necrotic cells at 2xIC50 after 24 hrs by Alexa flour 488 annexin V/PI- staining based flow cytometric analysis relative to control; assay type: functional
[19] = tested on: BE(2)-C; experiment: Induction of apoptosis in human BE(2)-C cells assessed as apoptotic cells at 2xIC50 after 24 hrs by Alexa flour 488 annexin V/PI- staining based flow cytometric analysis relative to control; assay type: functional
[20] = tested on: BE(2)-C; experiment: Antiproliferative activity against human BE(2)-C cells assessed as reduction in cell viability after 48 hrs by MTT assay; assay type: functional, cell-based
[21] = Hemolytic activity in mouse RBC at 500 uM after 1 hr relative to control; assay type: ADME, cell-based, Erythrocyte; conditions: red blood cells (erythrocytes), read-out: Activity
[22] = tested on: BE(2)-C; experiment: Induction of membrane disruption in human BE(2)-C cells assessed as membrane lysis at 2xIC50 after 24 hrs by SYTO9/PI-staining based inverted fluorescence microscopic analysis; conditions: Cell membrane
[23] = tested on: BE(2)-C; experiment: Induction of membrane disruption in human BE(2)-C cells assessed as membrane blebbing at 2xIC50 after 24 hrs by SYTO9/PI-staining based inverted fluorescence microscopic analysis; conditions: Cell membrane
[24] = tested on: HeLa; experiment: Induction of ROS generation in human HeLa cells after 24 hrs by DCFH-DA staining based fluorescence analysis; assay type: functional, cell-based
[25] = tested on: HeLa; experiment: Induction of apoptosis in human HeLa cells assessed as DNA damage at 2xIC50 after 24 hrs by Hoechst-33342 staining based inverted fluorescence microscopic analysis; assay type: functional, cell-based
[26] = target: 20S proteasome (Homo sapiens) (UniProt P49721+P20618+P28074+P28062+P28065+P28072+P25786+P25787+P25788+P25789+P28066+P60900+O14818+Q8TAA3+P40306+A5LHX3+P49720+P28070+Q99436); experiment: Inhibition of 20S proteasome in human BE(2)-C cells at 2xIC50 using LLVY-R110 peptide as substrate measured up to 36 hrs by fluorescence based assay; assay type: cell-based
[27] = tested on: BE(2)-C; experiment: Induction of membrane blebbing in human BE(2)-C cells at 2xIC50 after 12 hrs by SEM analysis; assay type: cell-based; conditions: Cell membrane
[28] = tested on: HeLa; experiment: Ratio of IC50 for antiproliferative activity against human HeLa cells to IC50 for antiproliferative activity against human HeLa in presence of cisplatin; assay type: functional
[29] = tested on: Candida albicans SC5314; experiment: Inhibition of Candida albicans SC5314 proteasome at antifungal MIC after 12 hrs by fluorescence based analysis
[30] = tested on: BE(2)-C; experiment: Induction of apoptosis in human BE(2)-C cells assessed as DNA damage at 2xIC50 after 24 hrs by SYTO9/PI-staining based inverted fluorescence microscopic analysis; assay type: functional, cell-based
[31] = tested on: HeLa; experiment: Induction of ROS generation in human HeLa cells at 2xIC50 measured up to 24 hrs in presence of ROS quencher, ascorbic acid by DCFH-DA staining based fluorescence analysis; assay type: functional, cell-based
[32] = tested on: HeLa; experiment: Induction of membrane disruption in human HeLa cells assessed as membrane lysis at 2xIC50 after 24 hrs by SYTO9/PI-staining based inverted fluorescence microscopic analysis; conditions: Cell membrane
[33] = tested on: BE(2)-C; experiment: Induction of ROS generation in human BE(2)-C cells at 0.4 to 200 uM after 24 hrs in presence of ROS quencher, ascorbic acid by DCFH-DA staining based fluorescence analysis; assay type: functional, cell-based
[34] = tested on: BE(2)-C; experiment: Induction of apoptosis in human BE(2)-C cells at 2xIC50 after 24 hrs by Annexin-V alexa fluor 488/PI staining based fluorescence microscopic analysis; assay type: functional, cell-based
[35] = tested on: Candida albicans; experiment: Synergistic antifungal activity against Candida albicans SC5314 assessed as FICI in presence of amphotericin B after 24 to 48 hrs by checker board assay; assay type: functional
[36] = tested on: BE(2)-C; experiment: Induction of apoptosis in human BE(2)-C cells assessed as DNA damage at 2xIC50 after 24 hrs by Hoechst-33342 staining based inverted fluorescence microscopic analysis; assay type: functional, cell-based
[37] = tested on: HeLa; experiment: Induction of apoptosis in human HeLa cells assessed as condensed chromatin at 2xIC50 after 24 hrs by Hoechst-33342 staining based inverted fluorescence microscopic analysis; assay type: functional, cell-based

SMILES | Activity [1] | Activity [2] | Activity [3] | MBIC [4] | IC50 [5] | Activity [6] | Activity [7] | Activity [8] | Activity [9] | Activity [10] | fold change (FC) [11] | Activity [12] | MIC [13] | IC50 [14] | Activity [15] | Activity [16] | Ratio [17] | Activity [18] | Activity [19] | IC50 [20] | further results
CC(=O)N[C@@H](Cc1ccc(O)cc1)C(=O)NCC(=O)N[C@@H](CCCNC(=N)N)C(=O)N[C@@H](CCCCN)C(=O)N[C@@H](CCCCN)C(=O)N[C@@H](CCCNC(=N)N)C(=O)N[C@@H](CCCNC(=N)N)C(=O)N[C@@H](CCC(N)=O)C(=O)N[C@@H](CCCNC(=N)N)C(=O)N[C@@H](CCCNC(=N)N)C(=O)N[C@@H](CCCNC(=N)N)C(=O)NCC(=O)NCC(=O)NCC(=O)N[C@@H](CC(C)C)C(=O)N[C@@H](CC(C)C)C(=O)N[C@H](C=O)CC(C)C (Ac-YGRKKRRQRRRGGGLLL-aldehyde) | Dose-dependent effect | Active | inactive | 15.6 µM | 2.5 nM | Active | Active | Tde | Active | Active | 6 | 72.9% | 6.25 µM | 4190 nM | Active | Active | 5 | 4.8% | 27.2% | 10300 nM | hemolysis at 1 h, 500 µM [21]: 1%; Activity [22]: Active; Activity [23]: Active; Activity [24]: Dose-dependent effect; Activity [25]: Active; inhibition [26]: Active; Activity [27]: Active; Ratio IC50 [28]: 5; inhibition [29]: Active; Activity [30]: Active; Activity [31]: inactive; Activity [32]: Active; Activity [33]: inactive; Activity [34]: Active; fractional inhibitory concentration index (FICI) [35]: 0.36; Activity [36]: Active; Activity [37]: Active
CC(=O)N[C@@H](Cc1ccc(O)cc1)C(=O)NCC(=O)N[C@@H](CCCNC(=N)N)C(=O)N[C@@H](CCCCN)C(=O)N[C@@H](CCCCN)C(=O)N[C@@H](CCCNC(=N)N)C(=O)N[C@@H](CCCNC(=N)N)C(=O)N[C@@H](CCC(N)=O)C(=O)N[C@@H](CCCNC(=N)N)C(=O)N[C@@H](CCCNC(=N)N)C(=O)N[C@@H](CCCNC(=N)N)C(=O)NCC(=O)NCC(=O)NCC(=O)N[C@@H](Cc1ccc(O)cc1)C(=O)N[C@@H](CC(C)C)C(=O)N[C@@H](Cc1ccccc1)C(=O)N[C@H](C=O)CC(C)C (Ac-YGRKKRRQRRRGGGYLFL-aldehyde) | Dose-dependent effect | Active | inactive | 7.8 µM | 4.28 to 4.3 nM | Active | Active | Tde | Active | Active | 6 | 80.5% | 3.12 µM | 1580 nM | Active | Active | 5 | 2.8% | 28.3% | 4700 nM | hemolysis at 1 h, 500 µM [21]: 12%; Activity [22]: Active; Activity [23]: Active; Activity [24]: Dose-dependent effect; Activity [25]: Active; inhibition [26]: Active; Activity [27]: Active; Ratio IC50 [28]: 4; inhibition [29]: Active; Activity [30]: Active; Activity [31]: inactive; Activity [32]: Active; Activity [33]: inactive; Activity [34]: Active; fractional inhibitory concentration index (FICI) [35]: 0.35; Activity [36]: Active; Activity [37]: Active

Source: ChEMBL document CHEMBL4354831, “Novel Cell-Penetrating Peptide Conjugated Proteasome Inhibitors: Anticancer and Antifungal Investigations” (J Med Chem, 2020)
